Among the test systems are SNB-75 CNS; SK-MEL-28 melanoma; HOP-92 NSCLC; A549 NSCLC; NCI-H522 lung; K-562 leukemia; HCC-2998 colon.
What all share (assay): growth of human tumour cells (NCI), 48 h

Here are results for twelve compounds from PubChem BioAssay (NCI).

SMILES strings stand for the structures.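 Five compound concentrations were applied to cells in 96-well plates for 48 hours; endpoints were derived by simple linear interpolation of the resulting dose-response curve. GI50: concentration for 50% inhibition of growth. TGI: concentration producing complete growth inhibition.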

Take `Cc1c(C)c2c(c(C)c1NC(=O)/C=C\C(=O)O)CCC(C)(CCCC(C)CCCC(C)CCCC(C)C)O2` (configuration not stated): the GI50 with SNB-75 CNS was 1.31 µM; in the experiment with SK-MEL-28 melanoma, 1.79 µM; in the experiment on HOP-92 NSCLC, 1.1 µM; in the experiment with A549 NSCLC, 1.79 µM; with NCI-H522 lung it was 2.23 µM; in the experiment on K-562 leukemia, 2.3 µM. The GI50 with HCC-2998 colon was 1.91 µM. The TGI with SNB-75 CNS is 2.58 µM; with SK-MEL-28 melanoma it was 3.28 µM; with HOP-92 NSCLC, 2.35 µM; in the experiment on A549 NSCLC it was 3.62 µM; in the experiment on NCI-H522 lung, 4.94 µM; with K-562 leukemia, 7.16 µM. This compound showed a TGI in the experiment on HCC-2998 colon of 3.64 µM.
For `COc1cc(/C=N/Nc2ncnc3c2cnn3C(C)C)ccc1O`, the GI50 is 0.506 µM in the experiment with SNB-75 CNS; 8.08 µM with SK-MEL-28 melanoma; 0.357 µM in the experiment with HOP-92 NSCLC; 9.92 µM in the experiment on A549 NSCLC; 6.78 µM in the experiment on NCI-H522 lung; 7.2 µM with K-562 leukemia. In addition, the GI50 in the experiment on HCC-2998 colon was 17.3 µM. The TGI in the experiment on SNB-75 CNS was 9.57 µM; in the experiment with SK-MEL-28 melanoma, above 25 µM; in the experiment on HOP-92 NSCLC it was 4.99 µM; with A549 NSCLC, above 25 µM; in the experiment on NCI-H522 lung, above 25 µM; in the experiment on K-562 leukemia, above 25 µM. In the experiment on HCC-2998 colon, this compound came in with a TGI above 25 µM.
For the compound `O=C(COc1ccc(/C=C2\Oc3ccccc3C2=O)cc1)Nc1nccs1`, the GI50 in the experiment with SNB-75 CNS was 17.4 µM; in the experiment on SK-MEL-28 melanoma, above 100 µM; with HOP-92 NSCLC, 1.53 µM; in the experiment with A549 NSCLC, 63.9 µM; in the experiment with K-562 leukemia, 60.1 µM; in the experiment with HCC-2998 colon, above 100 µM. In addition, the TGI with SNB-75 CNS was 72.6 µM; in the experiment on SK-MEL-28 melanoma it was above 100 µM; in the experiment on HOP-92 NSCLC, 4.85 µM; in the experiment with A549 NSCLC it was above 100 µM; with K-562 leukemia, above 100 µM; in the experiment on HCC-2998 colon, above 100 µM.
Take `N=Nc1c(OC(=O)Nc2ccccc2)[nH]c2ccccc12`: the TGI was 50 µM in the experiment with SNB-75 CNS; above 100 µM in the experiment with SK-MEL-28 melanoma; 55.6 µM with HOP-92 NSCLC; 44.4 µM with A549 NSCLC; 36.6 µM in the experiment on NCI-H522 lung; above 100 µM in the experiment with K-562 leukemia. In the experiment on HCC-2998 colon, this compound came in with a TGI of 29.7 µM.
As for `COc1cccc(C(=O)Nc2ccc(CN3CCc4nc5cc(OC)c(OC)cc5cc43)cc2)c1`, the GI50 in the experiment with SNB-75 CNS is 2.66 µM; with SK-MEL-28 melanoma it was 7.15 µM; in the experiment on HOP-92 NSCLC, 1.92 µM; in the experiment with A549 NSCLC it was 3.78 µM; with NCI-H522 lung, 3.94 µM; in the experiment on K-562 leukemia it was 3.72 µM. Further, the GI50 with HCC-2998 colon is 4.81 µM. Moreover, the TGI in the experiment with SNB-75 CNS was above 100 µM; in the experiment on SK-MEL-28 melanoma, above 100 µM; in the experiment with HOP-92 NSCLC, 7.45 µM; in the experiment with A549 NSCLC it was above 100 µM; in the experiment with NCI-H522 lung, 18.3 µM; with K-562 leukemia, 15.5 µM. Moreover, in the experiment with HCC-2998 colon, the TGI was 18.5 µM.
Regarding `N#CC(C#N)=Cc1c(-c2ccccc2)[nH]c2ccccc12`, the GI50 in the experiment with SNB-75 CNS was 2 µM; with SK-MEL-28 melanoma it was 3.57 µM; with HOP-92 NSCLC, 5.6 µM; in the experiment on A549 NSCLC it was 4.62 µM; with NCI-H522 lung it was 4.23 µM; in the experiment with K-562 leukemia it was 0.478 µM. In addition, the GI50 with HCC-2998 colon was 10.4 µM. Further, the TGI with SNB-75 CNS was 14.3 µM; in the experiment with SK-MEL-28 melanoma it was above 45.8 µM; in the experiment on HOP-92 NSCLC, above 100 µM; in the experiment on A549 NSCLC, above 100 µM; in the experiment with NCI-H522 lung it was 32.7 µM; in the experiment on K-562 leukemia it was above 100 µM. The same compound displayed a TGI in the experiment with HCC-2998 colon of 35.9 µM.
Take `CCCCN(CCCC)c1ccc(C(=N)c2ccc(N(C)C)cc2)cc1`: the GI50 in the experiment with SNB-75 CNS was 1.14 µM; in the experiment with SK-MEL-28 melanoma it was 1.31 µM; with HOP-92 NSCLC, 0.362 µM; in the experiment on A549 NSCLC, 0.7 µM; in the experiment on HCC-2998 colon, 0.429 µM. Further, the TGI amounted to 2.42 µM in the experiment on SNB-75 CNS; 2.6 µM in the experiment on SK-MEL-28 melanoma; 1.78 µM in the experiment with HOP-92 NSCLC; 1.97 µM with A549 NSCLC; 1.62 µM with HCC-2998 colon.
On to `CCN(CC)C(=O)CC1=C(C)/C(=C/c2[nH]c(-c3ccc[nH]3)cc2OC)N=C1C`, for which the GI50 was 0.307 µM with SNB-75 CNS, 0.235 µM in the experiment with HOP-92 NSCLC, 0.639 µM in the experiment with A549 NSCLC and 0.456 µM in the experiment on NCI-H522 lung. Besides, the TGI in the experiment with SNB-75 CNS is 3.35 µM; in the experiment on HOP-92 NSCLC it was 0.977 µM; in the experiment on A549 NSCLC, above 100 µM; in the experiment with NCI-H522 lung, 14 µM.
For `Cc1onc(-c2c(F)cccc2Cl)c1-c1ncc(-c2ccc(Cl)cc2)o1`, the GI50 in the experiment on SNB-75 CNS is 12.1 µM; in the experiment with SK-MEL-28 melanoma it was 6.26 µM; with A549 NSCLC, 4.34 µM; in the experiment with NCI-H522 lung it was 3.79 µM; in the experiment on K-562 leukemia, 4.35 µM; in the experiment on HCC-2998 colon, 5.95 µM. Besides, the TGI in the experiment on SNB-75 CNS was 77.6 µM; in the experiment with SK-MEL-28 melanoma it was above 100 µM; in the experiment on A549 NSCLC, above 100 µM; with NCI-H522 lung, above 100 µM; in the experiment on K-562 leukemia, above 100 µM; in the experiment with HCC-2998 colon it was above 100 µM.
As for `COc1cc2c(c(OC)c1OC)C(=O)CC(c1cccc(NC(=O)c3ccc(Br)cc3)c1)O2` (configuration not stated), the GI50 was 2.98 µM in the experiment with SK-MEL-28 melanoma; 3.57 µM in the experiment with A549 NSCLC; 1.49 µM in the experiment with NCI-H522 lung; 1.4 µM with K-562 leukemia; 7.49 µM in the experiment on HCC-2998 colon. Further, the TGI is above 100 µM in the experiment on SK-MEL-28 melanoma; above 100 µM in the experiment on A549 NSCLC; 6.43 µM in the experiment on NCI-H522 lung; above 100 µM in the experiment on K-562 leukemia; above 100 µM in the experiment with HCC-2998 colon.
On to `O=C(Cn1c(=O)c(-c2ccccc2)nc2ccccc21)c1ccc(Cl)cc1`, for which the GI50 in the experiment with SK-MEL-28 melanoma was 42.5 µM; in the experiment with HOP-92 NSCLC it was 27.2 µM; in the experiment with A549 NSCLC it was 58.3 µM; in the experiment with NCI-H522 lung, above 100 µM; in the experiment with K-562 leukemia, above 100 µM; in the experiment on HCC-2998 colon it was 99.5 µM. Also, the TGI with SK-MEL-28 melanoma is above 100 µM; with HOP-92 NSCLC it was 65 µM; in the experiment with A549 NSCLC, above 100 µM; in the experiment with NCI-H522 lung, above 100 µM; in the experiment with K-562 leukemia, above 100 µM; with HCC-2998 colon, above 100 µM.
For the compound `O=C(CCN1CCOCC1)Nc1ccc(F)cc1F`, the TGI with SK-MEL-28 melanoma, in the experiment on HOP-92 NSCLC, with A549 NSCLC, in the experiment on NCI-H522 lung and in the experiment on K-562 leukemia was above 100 µM throughout.
